Measurements from the NIST ThermoML archive (doi:10.1016/j.fluid.2007.07.070).
± gives the expanded uncertainty stated by the source.

Conditions: Crystal; DTA

Normal melting temperature: 260.6 ± 0.5 °C
Structure (SMILES): O=C1c2ccccc2C(=O)C1c1nc2ccccc2cc1O [1H-indene-1,3(2H)-dione, 2-(3-hydroxy-2-quinolinyl)-]
